Data taken from US11230526B1, “Cylcoalkenyl derivatives useful as agonists of the GPR120 and/or GPR40 receptors” (Janssen Pharmaceutica NV, priority 2018, dated 2022).

How the values were obtained:
human GPR40 = molecular target: T1, human GPR40 (Homo sapiens, UniProt O14842); assay: GPR40 calcium flux assay, human GPR40; type: cell-based; conditions: HEK293 cells stably expressing GPR40; table does not say human or rat
T1 construct: expressed in transfected cells
Procedure, shortened: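 Cells preincubated 1 h at 37° C. in HBSS, 20 mM HEPES, 0.1% BSA, then Fluo 8 calcium dye 30 min at 37° C. and 15 min at room temperature.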

Human GPR120 short form = molecular target: T2, Human GPR120 short form (Homo sapiens, UniProt Q5NUL3); assay: Human GPR120 calcium flux assay, Procedure Calcium B (4200 cells/well); type: cell-based
T2 construct: expressed in transfected cells
T2 sequence (Q5NUL3 1-361): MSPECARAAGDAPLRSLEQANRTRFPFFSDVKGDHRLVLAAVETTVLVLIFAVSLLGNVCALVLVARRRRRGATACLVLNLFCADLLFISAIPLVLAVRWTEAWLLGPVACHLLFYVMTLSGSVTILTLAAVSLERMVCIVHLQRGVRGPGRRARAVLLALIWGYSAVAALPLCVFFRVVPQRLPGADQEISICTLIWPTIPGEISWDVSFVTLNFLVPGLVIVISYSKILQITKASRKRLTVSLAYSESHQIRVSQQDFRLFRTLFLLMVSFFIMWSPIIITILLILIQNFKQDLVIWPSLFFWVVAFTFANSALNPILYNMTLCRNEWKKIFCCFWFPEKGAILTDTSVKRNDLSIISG
Procedure, shortened: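 Agonist EC50 came from a four-parameter fit of RFU (Fmax−Fmin) read over 300 s on FLIPR. Cells were HEK293 stably transfected with human GPR120 (NM_001195755.1) at 4200 per well, serum-starved 1 h and loaded with Fluo-4 NW dye with probenecid before ligand addition.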

T1 sequence (O14842 whole entry): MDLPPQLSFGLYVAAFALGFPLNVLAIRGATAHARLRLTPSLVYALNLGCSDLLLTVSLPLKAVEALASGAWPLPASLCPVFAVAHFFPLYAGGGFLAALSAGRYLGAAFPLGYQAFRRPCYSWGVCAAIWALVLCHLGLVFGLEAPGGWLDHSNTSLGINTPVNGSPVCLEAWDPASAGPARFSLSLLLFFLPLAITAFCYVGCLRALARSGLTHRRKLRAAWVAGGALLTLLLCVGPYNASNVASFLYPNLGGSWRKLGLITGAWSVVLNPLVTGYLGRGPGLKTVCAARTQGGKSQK

Row | Compound | EC50 (human GPR40) [nM] | EC50 (Human GPR120 short form) [nM]
1 | Cc1ccc(C2=C(COc3cc(C)c(CCC(=O)O)cc3F)CCC2)cc1F [Compound 264, 3-[5-fluoro-4-[[2-(3-fluoro-4-methyl-phenyl)cyclopenten-1-yl]methoxy]-2-methyl-phenyl]Propanoic Acid] | 1590 | 103
2 | COc1ccc(C2=C(COc3ccc(CCC(=O)O)c(C)c3C)CCC2)cn1 [Compound 220, 3-[4-[[2-(6-methoxy-3-pyridyl)cyclopenten-1-yl]methoxy]-2,3-dimethyl-phenyl]Propanoic Acid] | > 5000 | 160
3 | Cc1cc(Cl)ccc1C1=C(COc2ccc(CCC(=O)O)c(C(F)(F)F)c2)CCC1 [Compound 243, 3-[4-[[2-(4-chloro-2-methyl-phenyl)cyclopenten-1-yl]methoxy]-2-(trifluoromethyl)phenyl]Propanoic Acid] | 90 | > 5000
4 | Cc1cc(CCC(=O)O)c(C(F)(F)F)cc1OCC1=C(c2ccc(Cl)cc2)CCC1 [Compound 98, 3-[4-[[2-(4-chlorophenyl)cyclopenten-1-yl]methoxy]-5-methyl-2-(trifluoromethyl)phenyl]Propanoic Acid] | > 5000 | 2030
5 | Cc1cc(OCC2=C(c3ccc(Br)cc3)CCC2)c(F)cc1CCC(=O)O [Compound 299, 3-[4-[[2-(4-bromophenyl)cyclopenten-1-yl]methoxy]-5-fluoro-2-methyl-phenyl]Propanoic Acid] | 661 | 251
6 | Cc1ccc(F)c(C2=C(COc3ccc(CCC(=O)O)c(C(F)(F)F)c3)CCC2)c1 [Compound 341, 3-[4-[[2-(2-fluoro-5-methyl-phenyl)cyclopenten-1-yl]methoxy]-2-(trifluoromethyl)phenyl]Propanoic Acid] | 281 | 447
7 | O=C(O)CCc1ccc(OCC2=C(c3ccc(OC(F)(F)F)cc3)CCC2)cc1C(F)(F)F [Compound 308, 3-[4-[[2-[4-(trifluoromethoxy)phenyl]cyclopenten-1-yl]methoxy]-2-(trifluoromethyl)phenyl]Propanoic Acid] | 899 | > 5000
8 | Cc1cc(OCC2=C(c3ccccc3)CCC2)c(F)cc1CCC(=O)O [Compound 277, 3-[5-fluoro-2-methyl-4-[(2-phenylcyclopenten-1-yl)methoxy]phenyl]Propanoic Acid] | 2680 | 799
9 | Cc1cc(OCC2=C(c3cc(Cl)ccc3F)CCC2)c(F)cc1CCC(=O)O [Compound 339, 3-[4-[[2-(5-chloro-2-fluoro-phenyl)cyclopenten-1-yl]methoxy]-5-fluoro-2-methyl-phenyl]Propanoic Acid] | 356 | 803
10 | Cc1cc(OCC2=C(c3ccccc3Cl)CCC2)c(F)cc1CCC(=O)O [Compound 265, 3-[4-[[2-(2-chlorophenyl)cyclopenten-1-yl]methoxy]-5-fluoro-2-methyl-phenyl]Propanoic Acid] | 1140 | 1210
11 | Cc1ccc(C2=C(COc3ccc(CCC(=O)O)c(Cl)c3)CCC2)cc1F [Compound 296, 3-[2-chloro-4-[[2-(3-fluoro-4-methyl-phenyl)cyclopenten-1-yl]methoxy]phenyl]Propanoic Acid] | 1070 | 157
12 | Cc1cc(OCC2=C(c3ccc(Cl)cc3)CCC2C)c(F)cc1CCC(=O)O (stereo not drawn) [Compound 333, 3-[4-[[2-(4-chlorophenyl)-5-methyl-cyclopenten-1-yl]methoxy]-5-fluoro-2-methyl-phenyl]Propanoic Acid] | 1010 | 427
13 | COc1ccc(C2=C(COc3ccc(CCC(=O)O)c(Cl)c3)CCC2)cc1 [Compound 288, 3-[2-chloro-4-[[2-(4-methoxyphenyl)cyclopenten-1-yl]methoxy]phenyl]Propanoic Acid] | 1080 | 847
14 | Cc1ccc(C2=C(COc3ccc(CCC(=O)O)cc3)CCC2)c(C)c1 [Compound 245, 3-[4-[[2-(2,4-dimethylphenyl)cyclopenten-1-yl]methoxy]phenyl]Propanoic Acid] | 1910 | 2000
15 | CC1CCC(COc2ccc(CCC(=O)O)c(Cl)c2)=C1c1ccc(Cl)cc1 (stereo not drawn) [Compound 327, 3-[2-chloro-4-[[2-(4-chlorophenyl)-3-methyl-cyclopenten-1-yl]methoxy]phenyl]Propanoic Acid] | 205 | 983
16 | O=C(O)CCc1ccc(OCC2=C(c3cccc(F)c3)CCC2)cc1C(F)(F)F [Compound 263, 3-[4-[[2-(3-fluorophenyl)cyclopenten-1-yl]methoxy]-2-(trifluoromethyl)phenyl]Propanoic Acid] | 134 | 262
17 | CSCCCCc1cc(CCC(=O)O)ccc1OCC1=C(c2ccc(Cl)cc2)CCC1 [Compound 198, 3-[4-[[2-(4-chlorophenyl)cyclopenten-1-yl]methoxy]-3-(4-methylsulfanylbutyl)phenyl]Propanoic Acid] | 2140 | 1290

Next, values leading:

Row | EC50 (human GPR40) [nM] | EC50 (Human GPR120 short form) [nM] | Compound
18 | 59 | 387 | COc1cc(OCC2=C(C3CCCC3)CCC2)ccc1CCC(=O)O [Compound 434, 3-[4-[(2-cyclopentylcyclopenten-1-yl)methoxy]-2-methoxy-phenyl]Propanoic Acid]
19 | 225 | 436 | O=C(O)CCc1ccc(OCC2=C(C3CCCC3)CCCCC2)cc1F [Compound 613, 3-[4-[(2-cyclopentylcyclohepten-1-yl)methoxy]-2-fluoro-phenyl]Propanoic Acid]
20 | 135 | 995 | O=C(O)CCc1ccc(OCC2=C(C3CCC3)CCC2)cc1Cl [Compound 400, 3-[2-chloro-4-[(2-cyclobutylcyclopenten-1-yl)methoxy]phenyl]Propanoic Acid]
21 | > 5000 | > 5000 | COC1CCC(c2ccccc2C)=C(COc2ccc(CCC(=O)O)cc2)C1 (stereo not drawn) [Compound 575, 3-[4-[[5-methoxy-2-(o-tolyl)cyclohexen-1-yl]methoxy]phenyl]Propanoic Acid]
22 | 1510 | 1140 | CC1CCC(c2ccccc2)=C1COc1ccc(CCC(=O)O)c(C(F)(F)F)c1 (stereo not drawn) [Compound 367, 3-[4-[(5-methyl-2-phenyl-cyclopenten-1-yl)methoxy]-2-(trifluoromethyl)phenyl]Propanoic Acid]
23 | 46 | 1330 | O=C(O)CCc1ccc(OCC2=C(Cc3ccc(F)cc3)CCC2)cc1C(F)(F)F [Compound 353, 3-[4-[[2-[(4-fluorophenyl)methyl]cyclopenten-1-yl]methoxy]-2-(trifluoromethyl)phenyl]Propanoic Acid]
24 | 3690 | > 5000 | O=C(O)CCc1ccc(OCC2=C(C3=CCCCC3)CCC2)cc1Cl [Compound 355, 3-[2-chloro-4-[[2-(cyclohexen-1-yl)cyclopenten-1-yl]methoxy]phenyl]Propanoic Acid]
25 | 513 | 4650 | O=C(O)CCc1ccc(OCC2=C(C3CCC(F)(F)CC3)CCC2)cc1 [Compound 412, 3-[4-[[2-(4,4-difluorocyclohexyl)cyclopenten-1-yl]methoxy]phenyl]Propanoic Acid]
26 | 431 | 2390 | CCCC1=C(COc2ccc(CCC(=O)O)c(Cl)c2)CCCC1 [Compound 591, 3-[2-chloro-4-[(2-propylcyclohexen-1-yl)methoxy]phenyl]Propanoic Acid]
27 | 77 | 1210 | O=C(O)CCc1ccc(OCC2=C(Cc3ccccc3)CCCC2)cc1Cl [Compound 582, 3-[4-[(2-benzylcyclohexen-1-yl)methoxy]-2-chloro-phenyl]Propanoic Acid]
28 | 89 | 844 | O=C(O)CCc1ccc(OCC2=C(C3(F)CCC3)CC(F)(F)C2)cc1C(F)(F)F [Compound 429, 3-[4-[[4,4-difluoro-2-(1-fluorocyclobutyl)cyclopenten-1-yl]methoxy]-2-(trifluoromethyl)phenyl]Propanoic Acid]
29 | > 10000 | 188 | Cc1c(CCC(=O)O)ccc(OCC2=C(C3CCCC3)CCC(F)(F)CC2)c1C [Compound 618, 3-[4-[(2-cyclopentyl-5,5-difluoro-cyclohepten-1-yl)methoxy]-2,3-dimethyl-phenyl]Propanoic Acid]
30 | 81 | 3110 | O=C(O)CCc1ccc(OCC2=C(Cc3ccc(Cl)cc3)CCC2)cc1C(F)(F)F [Compound 359, 3-[4-[[2-[(4-chlorophenyl)methyl]cyclopenten-1-yl]methoxy]-2-(trifluoromethyl)phenyl]Propanoic Acid]
31 | 49 | 891 | O=C(O)CCc1ccc(OCC2=C(Cc3ccccc3)CC(F)(F)C2)cc1Cl [Compound 364, 3-[4-[(2-benzyl-4,4-difluoro-cyclopenten-1-yl)methoxy]-2-chloro-phenyl]Propanoic Acid]
32 | 25 | 86 | O=C(O)CCc1ccc(OCC2=C(C3CCCC3)CC(F)(F)C2)cc1Cl [Compound 409, 3-[2-chloro-4-[(2-cyclopentyl-4,4-difluoro-cyclopenten-1-yl)methoxy]phenyl]Propanoic Acid]
33 | > 5000 | 1530 | Cc1c(CCC(=O)O)ccc(OCC2=C(c3ccc(Cl)cc3)CC(C(C)C)CC2)c1C (stereo not drawn) [Compound 500, 3-[4-[[2-(4-chlorophenyl)-4-isopropyl-cyclohexen-1-yl]methoxy]-2,3-dimethyl-phenyl]Propanoic Acid]
